For 26 compounds, IC50 results are on record in US8247556B2, “Method for preparing 6-substituted-7-aza-indoles” (Amgen Inc., priority 2005, dated 2012).

Where only a bound is given, the exact number is not on record here.

This test has as its system VEGF-stimulated HUVEC proliferation (Human Umbilical Vein Endothelial cells). Nature of the test: HUVEC Proliferation Assay. The test is classed as cell-based. The following applies: VEGF 50 ng/mL, 72 h, CyQuant fluorescent dye, read-out: inhibited VEGF-stimulated HUVEC proliferation at a level. As to the method:
Human Umbilical Vein Endothelial cells are purchased from Clonetics, Inc., as cryopreserved cells harvested from a pool of donors. These cells, at passage 1, are thawed and expanded in EBM-2 complete medium, until passage 2 or 3. The cells are trypsinized, washed in DMEM+10% FBS+antibiotics, and spun at 1000 rpm for 10 min. Prior to centrifugation of the cells, a small amount is collected for a cell count. After centrifugation, the medium is discarded, and the cells are resuspended in the appropriate volume of DMEM+10% FBS+antibiotics to achieve a concentration of 3×10^5 cells/mL. Another cell count is performed to confirm the cell concentration. The cells are diluted to 3×10^4 cells/mL in DMEM+10% FBS+antibiotics, and 100 μL of cells are added to a 96-well plate. The cells are incubated at 37° C. for 22 h.
Prior to the completion of the incubation period, compound dilutions are prepared. Five-point, five-fold serial dilutions are prepared in DMSO, at concentrations 400-fold greater than the final concentrations desired. 2.5 μL of each compound dilution are diluted further in a total of 1 mL DMEM+10% FBS+antibiotics (400× dilution). Medium containing 0.25% DMSO is also prepared for the 0 μM compound sample. At the 22 h time point, the medium is removed from the cells, and 100 μL of each compound dilution is added. The cells are incubated at 37° C. for 2-3 h.
During the compound pre-incubation period, the growth factors are diluted to the appropriate concentrations. Solutions of DMEM+10% FBS+antibiotics, containing either VEGF or bFGF at the following concentrations: 50, 10, 2, 0.4, 0.08, and 0 ng/mL are prepared. For the compound-treated cells, solutions of VEGF at 550 ng/mL or bFGF at 220 ng/mL for 50 ng/mL or 20 ng/mL final concentrations, respectively, are prepared since 10 μL of each will be added to the cells (110 μL final volume). At the appropriate time after adding the compounds, the growth factors are added. VEGF is added to one set of plates, while bFGF is added to another set of plates. For the growth factor control curves, the media on wells B4-G6 of plates 1 and 2 are replaced with media containing VEGF or bFGF at the varying concentrations (50-0 ng/mL). The cells are incubated at 37° C. for an additional 72 h.
At the completion of the 72 h incubation period, the medium is removed, and the cells are washed twice with PBS. After the second wash with PBS, the plates are tapped gently to remove excess PBS, and the cells are placed at −70° C. for at least 30 min. The cells are thawed and analyzed using the CyQuant fluorescent dye (Molecular Probes C-7026), following the manufacturer's recommendations. The plates are read on a Victor/Wallac 1420 workstation at 485 nm/530 nm (excitation/emission). Raw data are collected and analyzed using a 4-parameter fit equation in XLFit. IC50 values are then determined.
In the case of `CC1Sc2ccc(NC(=O)c3cc(F)cnc3NCc3ccnc4[nH]ccc34)cc2NC1=O` (centres unmarked) [Example 108, 5-fluoro-N-(2-methyl-3-oxo-3,4-dihydro-2H-1,4-benzothiazin-6-yl)-2-((1H-pyrrolo[2,3-b]pyridin-4-ylmethyl)amino)-3-pyridinecarboxamide], the IC50 was below 500 nM.
In the case of `CC1(C)CN(C(=O)[C@@H]2CCN2)c2cc(NC(=O)c3cccnc3NCc3ccnc4[nH]ccc34)ccc21` [Example 23, N-{1-[(2S)-Azetidin-2-ylcarbonyl]-3,3-dimethyl-2,3-dihydro-1H-indol-6-yl}-2-[(1H-pyrrolo[2,3-b]pyridin-4-ylmethyl)amino]nicotinamide], the IC50 was below 500 nM.
On to `CC(C)(C)c1ccc(NC(=O)c2cc(Cl)cnc2NCc2ccnc3[nH]ccc23)cc1` [Example 88, 5-chloro-N-(4-(1,1-dimethylethyl)phenyl)-2-((1H-pyrrolo[2,3-b]pyridin-4-ylmethyl)amino)-3-pyridinecarboxamide], for which the IC50 was below 500 nM.
For `O=C(Nc1ccc(Cl)cc1)c1cc(F)cnc1NCc1ccnc2[nH]ccc12` [Example 91, N-(4-chlorophenyl)-5-fluoro-2-((1H-pyrrolo[2,3-b]pyridin-4-ylmethyl)amino)-3-pyridinecarboxamide] the value was below 500 nM.
For `CN(C)c1nc2cc(NC(=O)c3cc(F)cnc3NCc3ccnc4[nH]ccc34)ccc2s1` [Example 114, N-(2-(dimethylamino)-1,3-benzothiazol-5-yl)-5-fluoro-2-((1H-pyrrolo[2,3-b]pyridin-4-ylmethyl)amino)-3-pyridinecarboxamide] the value was below 500 nM.
For `O=C(Nc1cccc(C(F)(F)F)c1)c1cc(F)cnc1NCc1ccnc2[nH]ncc12` [Example 122, 5-Fluoro-2-((1H-pyrazolo[3,4-b]pyridin-4-ylmethyl)amino)-N-(3-(trifluoromethyl)phenyl)-3-pyridinecarboxamide] the value was below 500 nM.
For `CC1(C)CNCc2cc(NC(=O)c3cccnc3NCc3ccnc4[nH]ccc34)cnc21` [Example 11], the IC50 is below 500 nM.
Consider `CC1(C)CNCc2cc(NC(=O)c3cc(F)cnc3NCc3ccnc4[nH]ncc34)ccc21` [Example 129, N-(4,4-Dimethyl-1,2,3,4-tetrahydro-7-isoquinolinyl)-5-fluoro-2-((1H-pyrazolo[3,4-b]pyridin-4-ylmethyl)amino)-3-pyridinecarboxamide], for which the IC50 is below 500 nM.
The same measure for `O=C(Nc1ccc(C(F)(F)C(F)(F)F)c(OCCN2CCCC2)c1)c1cccnc1NCc1ccnc2[nH]ccc12` [Example 63, N-[4-pentafluoroethyl-3-(2-pyrrolidin-1-yl-ethoxy)-phenyl]-2-[(1H-pyrrolo[2,3-b]pyridin-4-ylmethyl)-amino]-nicotinamide]: below 500 nM.
Take `O=C(Nc1ccc(C(OC[C@@H]2CCCN2)(C(F)(F)F)C(F)(F)F)cc1)c1cccnc1NCc1ccnc2[nH]ccc12` [Example 20, (S)-2-((1H-pyrrolo[2,3-b]pyridin-4-yl)methylamino)-N-(4-(1,1,1,3,3,3-hexafluoro-2-(pyrrolidin-2-ylmethoxy)propan-2-yl)phenyl)nicotinamide]: the IC50 is below 500 nM.
`O=C(Nc1cccc(C(OC[C@@H]2CCCN2)(C(F)(F)F)C(F)(F)F)c1)c1cccnc1NCc1ccnc2[nH]ccc12` [Example 19, (S)-2-((1H-pyrrolo[2,3-b]pyridin-4-yl)methylamino)-N-(3-(1,1,1,3,3,3-hexafluoro-2-(pyrrolidin-2-ylmethoxy)propan-2-yl)phenyl)nicotinamide]: the IC50 is below 500 nM.
For `CC1(C)CCNc2cc(NC(=O)c3cccnc3NCc3ccnc4[nH]ncc34)ccc21` [Example 71, N-(4,4-Dimethyl-1,2,3,4-tetrahydro-7-quinolinyl)-2-((1H-pyrazolo[3,4-b]pyridin-4-ylmethyl)amino)-3-pyridinecarboxamide] the value was below 500 nM; for `CC(C)Oc1ccc(NC(=O)c2cc(F)cnc2NCc2ccnc3[nH]ncc23)cc1` [Example 124, 5-Fluoro-N-(4-((1-methylethyl)oxy)phenyl)-2-((1H-pyrazolo[3,4-b]pyridin-4-ylmethyl)amino)-3-pyridinecarboxamide], below 500 nM.
For `O=C(Nc1ccc(Cl)c(C(F)(F)F)c1)c1cc(F)cnc1NCc1ccnc2[nH]ccc12` [Example 90, N-(4-chloro-3-(trifluoromethyl)phenyl)-5-fluoro-2-((1H-pyrrolo[2,3-b]pyridin-4-ylmethyl)amino)-3-pyridinecarboxamide] the value was below 500 nM; for `O=C(Nc1ccc2ccncc2c1)c1cccnc1NCc1ccnc2[nH]ccc12` [Example 55, N-Isoquinolin-7-yl-2-[(1H-pyrrolo[2,3-b]pyridin-4-ylmethyl)-amino]-nicotinamide], below 500 nM.
`CC1(C)CNCc2cc(NC(=O)c3cccnc3NCc3ccnc4c3CCN4)ccc21` [Example 25, 2-[(2,3-Dihydro-1H-pyrrolo[2,3-b]pyridin-4-ylmethyl)amino]-N-(4,4-dimethyl-1,2,3,4-tetrahydroisoquinolin-7-yl)nicotinamide]: the IC50 is below 500 nM.
With `O=C(Nc1cc(CCCN2CCOCC2)cc(C(F)(F)F)c1)c1cccnc1NCc1ccnc2[nH]ccc12` [Example 60, N-(3-(3-(4-morpholinyl)propyl)-5-(trifluoromethyl)phenyl)-2-((1H-pyrrolo[2,3-b]pyridin-4-ylmethyl)amino)-3-pyridinecarboxamide], the IC50 is below 500 nM.
For `CC1(C)CNCc2cc(NC(=O)c3cc(F)cnc3NCc3ccnc4[nH]ccc34)ccc21` [Example 101, N-(4,4-dimethyl-1,2,3,4-tetrahydro-7-isoquinolinyl)-5-fluoro-2-((1H-pyrrolo[2,3-b]pyridin-4-ylmethyl)amino)-3-pyridinecarboxamide], the IC50 was below 500 nM.
The same measure for `O=C(Nc1ccc2c(c1)NCC21CC1)c1cccnc1NCc1ccnc2[nH]ccc12` [Example 8]: below 500 nM; for `COC(c1ccc(NC(=O)c2cccnc2NCc2ccnc3[nH]ccc23)cc1)(C(F)(F)F)C(F)(F)F` [Example 44, 2-[(1H-Pyrrolo[2,3-b]pyridin-4-ylmethyl)-amino]-N-[4-(2,2,2-trifluoro-1-methoxy-1-trifluoromethyl-ethyl)-phenyl]-nicotinamide]: below 500 nM.
Consider `O=C(Nc1ccc(C(F)(F)F)c(OCC2CCCO2)c1)c1cccnc1NCc1ccnc2[nH]ccc12` (centres unmarked) [Example 57, 2-[(1H-Pyrrolo[2,3-b]pyridin-4-ylmethyl)-amino]-N-[3-(tetrahydro-furan-2-ylmethoxy)-4-trifluoromethyl-phenyl]-nicotinamide], for which the IC50 was below 500 nM.
For the compound `Cc1nc2cc(NC(=O)c3cc(F)cnc3NCc3ccnc4c3CCN4)ccc2s1` [Example 115, 2-((2,3-dihydro-1H-pyrrolo[2,3-b]pyridin-4-ylmethyl)amino)-5-fluoro-N-(2-methyl-1,3-benzothiazol-5-yl)-3-pyridinecarboxamide], the IC50 was below 500 nM.
The same measure for `CC1(C)CCNc2cc(NC(=O)c3cccnc3NCc3ccnc4c3CC(=O)N4)ccc21` [Example 73, N-(4,4-Dimethyl-1,2,3,4-tetrahydro-quinolin-7-yl)-2-[(2-oxo-2,3-dihydro-1H-pyrrolo[2,3-b]pyridin-4-ylmethyl)-amino]-nicotinamide]: below 500 nM; for `CN1CCC[C@H]1COc1cc(NC(=O)c2cccnc2NCc2ccnc3[nH]ccc23)cc(C(F)(F)F)c1` [Example 35, N-[3-{[(2S)-1-methylpyrrolidin-2-yl]methoxy}-5-(trifluoromethyl)phenyl]-2-[(1H-pyrrolo[2,3-b]pyridin-4-ylmethyl)amino]nicotinamide]: below 500 nM; for `O=C(Nc1ccc2ncccc2c1)c1cccnc1NCc1ccnc2[nH]ccc12` [Example 53, 2-[(1H-Pyrrolo[2,3-b]pyridin-4-ylmethyl)-amino]-N-quinolin-6-yl-nicotinamide]: below 500 nM.
`O=C(Nc1ccc(C(F)(F)F)c(Cl)c1)c1cc(F)cnc1NCc1ccnc2[nH]ccc12` [Example 100, N-(3-chloro-4-(trifluoromethyl)phenyl)-5-fluoro-2-((1H-pyrrolo[2,3-b]pyridin-4-ylmethyl)amino)-3-pyridinecarboxamide]: the IC50 was below 500 nM.
